What follows are compounds tested on Malassezia furfur 14521 (assay: Antifungal activity on M. furfur (resazurin viability assay, MIC and ΣFIC synergy evaluation)). Settings: M. furfur 14521, YPD broth, 30° C., 72 hours, resazurin readout.
Format: cell-based
Method: The samples as given in Table-1 were subjected to their anti fungal efficacy on M. furfur as described hereinafter.
The test organism used in the assay is Malassezia furfur 14521. The M. furfur were revived from glycerol stock in YPD agar plates (yeast extract peptone dextrose media) containing 1% corn oil. The composition of YPD is yeast extract:10 g/litre, dextrose 20 g/litre, Peptone 20 g/litre and […]. The plates were incubated at 30° C. for 72 hours for forming fungal colonies. A suspension culture of M. furfur was made using the colonies from plates in YPD broth. The optical density of the suspension culture was adjusted to 0.6 using spectrophotometer. This suspension was diluted in the ratio of 1:10 using YPD broth and 100 μl of this culture was added into each well of 96 well test plate. A stock solution of 4× strength of test ingredients (itaconic acid and sodium benzoate) was prepared for each of the concentrations tested eg for 0.125% test concentration of itaconic acid/sodium benzoate a stock of 0.5% was prepared in YPD broth. 50 μl of each of the test ingredient was added to 100 μl of M. furfur culture, making the final volume to 200 μl. In wells containing only one test ingredient, (itaconic acid or sodium benzoate only) 50 μl of test ingredient was added to 100 μl of fungal culture and then made up the volume to 200 μl with YPD broth. The plates were incubated at 30° C. for 72 hours. Post incubation 10 μl of 1% resazurin was added to each well and incubated for 18 hours at 30° C. […] The anti-fungal efficacy of the ingredient or combination of ingredients is calculated based on the colour development.
The combinations of test ingredients with synergistic anti-fungal benefits were evaluated using ΣFIC method. The ΣFIC of the combinations were calculated using the following formula • ΣFIC of combination A+B=[Concentration of A]/MIC of A+[concentration of B]/MIC of B, where MIC is the Minimum inhibitory concentration (MIC) of ingredient. […]

SMILES	MIC (Minimum inhibitory concentration)
C=C(CC(=O)O)C(=O)O [Itaconic acid]	0.25 wt %
O=C([O-])c1ccccc1.[Na+] [Sodium Benzoate]	0.5 wt %
C=C(CC(=O)OC)C(=O)OC [Dimethyl itaconate]	0.5 wt %
